Columns and labels:
Prolyl hydroxylase EGLN2 = Prolyl hydroxylase EGLN2 (Homo sapiens, UniProt Q96KS0); assay: Inhibition of recombinant full length human N-terminal FLAG-tagged PHD1 expressed in baculovirus expression system using HIF1/C35 complex as substrate preincubated for 30 mins followed by substrate addition measured after 10 mins by TR-FRET assay
Egl nine homolog 1 = Egl nine homolog 1 (Homo sapiens, UniProt Q9GZT9); assay: Inhibition of full length human N-terminal His-tagged/TEV cleavage fused PHD2 expressed in baculovirus infected insect cells using HIF1/C35 complex as substrate preincubated for 30 mins followed by substrate addition measured after 10 mins by TR-FRET assay
Prolyl hydroxylase EGLN3 = Prolyl hydroxylase EGLN3 (Homo sapiens, UniProt Q9H6Z9); assay: Inhibition of recombinant full length human N-terminal 6His-tagged PHD3 expressed Escherichia coli using HIF1/C35 complex as substrate preincubated for 30 mins followed by substrate addition measured after 10 mins by TR-FRET assay

Measured: IC50

Prolyl hydroxylase EGLN2, sequence (Q96KS0 whole entry, the tested form may be a part): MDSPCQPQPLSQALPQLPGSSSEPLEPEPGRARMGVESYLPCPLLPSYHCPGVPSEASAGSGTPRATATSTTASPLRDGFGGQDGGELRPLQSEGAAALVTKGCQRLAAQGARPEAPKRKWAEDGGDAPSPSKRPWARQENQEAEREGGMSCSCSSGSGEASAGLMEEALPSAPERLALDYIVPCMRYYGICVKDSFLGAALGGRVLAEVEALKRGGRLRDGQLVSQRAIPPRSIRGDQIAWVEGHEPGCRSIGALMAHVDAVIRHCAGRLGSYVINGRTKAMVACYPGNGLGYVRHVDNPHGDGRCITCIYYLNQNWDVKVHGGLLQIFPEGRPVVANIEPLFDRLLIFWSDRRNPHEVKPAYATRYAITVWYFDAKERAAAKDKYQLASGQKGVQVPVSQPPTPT
Egl nine homolog 1, sequence (Q9GZT9 whole entry, the tested form may be a part): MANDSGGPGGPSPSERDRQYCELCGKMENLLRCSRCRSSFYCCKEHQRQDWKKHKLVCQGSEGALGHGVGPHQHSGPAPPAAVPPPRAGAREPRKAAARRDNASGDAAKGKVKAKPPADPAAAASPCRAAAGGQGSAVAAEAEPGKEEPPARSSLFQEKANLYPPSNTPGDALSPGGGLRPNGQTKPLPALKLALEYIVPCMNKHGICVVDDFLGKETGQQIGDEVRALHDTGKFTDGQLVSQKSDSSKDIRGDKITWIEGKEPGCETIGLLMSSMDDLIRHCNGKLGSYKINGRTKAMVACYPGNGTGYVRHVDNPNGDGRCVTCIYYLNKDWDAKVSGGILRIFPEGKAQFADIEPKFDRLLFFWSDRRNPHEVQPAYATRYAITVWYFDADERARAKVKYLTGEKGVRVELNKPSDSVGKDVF
Prolyl hydroxylase EGLN3, sequence (Q9H6Z9 whole entry): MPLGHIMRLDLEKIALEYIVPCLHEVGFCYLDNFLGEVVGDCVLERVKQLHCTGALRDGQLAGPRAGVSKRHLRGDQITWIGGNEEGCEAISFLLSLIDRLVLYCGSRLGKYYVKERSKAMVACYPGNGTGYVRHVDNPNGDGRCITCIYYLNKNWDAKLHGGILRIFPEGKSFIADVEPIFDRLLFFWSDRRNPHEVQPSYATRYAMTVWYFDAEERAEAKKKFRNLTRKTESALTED

N#Cc1ccc(-c2cnn(-c3ccc(-c4nccs4)cn3)c2O)cc1
< 100 nM: all assays above

CCC(=O)Nc1ccc(-n2ncc(-c3ccc(C#N)cc3)c2O)nc1
< 100 nM: all assays above

N#Cc1ccc(-c2cnn(-c3ccc(N4CCCC4=O)cn3)c2O)cc1
< 100 nM: all assays above

CS(=O)(=O)c1ccc(-n2ncc(-c3ccc(C#N)cc3)c2O)nc1
< 100 nM: all assays above

CC(=O)c1ccc(-n2ncc(-c3ccc(C#N)cc3)c2O)nc1
< 100 nM: all assays above

CCS(=O)(=O)Nc1ccc(-n2ncc(-c3ccc(C#N)cc3)c2O)nc1
< 100 nM: all assays above
